The text below walks through data of patent US10308615B2, “Heterocyclic compounds as inhibitors of Vanin-1 enzyme” (Pfizer Inc., priority 2015, dated 2019).

Assay [1] deals with T1, human vanin-1 (Homo sapiens (Human), UniProt O95497). The experiment in a line: Human Vanin-1 Enzyme Assay 1. It is filed as biochemical. To be noted: 25 pM human vanin-1, 50 uM pantetheine 7-amino-4-trifluoromethylcoumarin, 30 min preincubation, 60 min. Put shortly: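 Purified His6/FLAG-tagged extracellular domain of human vanin-1, secreted from CHO cells, at 25 pM final in 50 mM Tris-HCl pH 8.0, 50 mM KCl, 0.005% Brij-35, 1.6 mM cysteamine, 0.5% DMSO. Inhibitor preincubated 30 min at room temperature; 50 uM pantetheine-AFC substrate, 60 min, fluorescence at 405/510 nm; 11-point four-fold dilution series.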
T1 sequence (O95497 22-491): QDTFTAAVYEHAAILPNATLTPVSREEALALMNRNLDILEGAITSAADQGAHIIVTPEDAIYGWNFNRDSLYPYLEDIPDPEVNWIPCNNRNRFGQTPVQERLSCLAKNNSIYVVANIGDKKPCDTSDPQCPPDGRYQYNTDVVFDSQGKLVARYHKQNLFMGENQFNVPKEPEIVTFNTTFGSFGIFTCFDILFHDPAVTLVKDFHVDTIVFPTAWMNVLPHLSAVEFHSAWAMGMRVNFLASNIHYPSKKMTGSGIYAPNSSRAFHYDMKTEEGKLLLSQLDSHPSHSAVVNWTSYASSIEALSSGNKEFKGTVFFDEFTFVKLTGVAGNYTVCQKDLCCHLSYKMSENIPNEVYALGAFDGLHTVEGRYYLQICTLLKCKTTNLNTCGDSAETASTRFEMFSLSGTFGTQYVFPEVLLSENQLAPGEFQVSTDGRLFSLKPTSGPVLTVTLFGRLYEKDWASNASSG

Assay [2] deals with T1, human vanin-1. The experiment in a line: Human Vanin-1 Enzyme Assay 2. It is filed as biochemical. To be noted: 1 nM human vanin-1, 10 uM substrate, 45 min. The procedure:
Human Vanin-1 Enzyme Assay 2.
The in vitro assay measures enzymatic cleavage of the fluorescently-labeled vanin substrate, pantetheine 7-amino-4-trifluoromethylcoumarin, by human vanin-1.
The vanin-1 protein was prepared in-house from a construct expressing the extracellular domain of human vanin-1 (GenBank ID NM_004666) preceded N-terminally by the honey bee melittin signal peptide, a GSG linker sequence, a His6X tag and a FLAG tag. The secreted, soluble enzyme was purified from the conditioned medium from a CHO cell line stably expressing the resulting protein. Enzyme purification was performed through sequential Ni NTA and size-exclusion chromatography steps.
On the day of the assay, dose response plates were prepared by diluting the inhibitors in DMSO at compound concentration 100-fold the final in-assay concentration. Concentration series were prepared by serially diluting in DMSO in a half-log series for a total of 11 data points. Intermediate compound plates containing compound in 10% DMSO were then created by diluting the compounds 10-fold in assay buffer consisting of 50 mM Tris-HCl pH=8.0, 50 mM KCl, 0.005% Brij-35 and 1.5 mM cysteamine. To begin the assay 3 μL were transferred from the intermediate compound plate to the assay plate.
A working solution of human vanin-1 was prepared by diluting the enzyme stock to 1.25 nM in assay buffer. Next, 24 μL of the vanin-1 working solution were transferred to the assay plate. The enzyme reaction was then initiated by the addition of 3 μL of 100 μM pantetheine 7-amino-4-trifluoromethylcoumarin prepared in assay buffer. The final concentrations in the assay were 1 nM human vanin-1 and 10 uM substrate. The final concentration of DMSO was 1%. The assay plates were incubated for 45 minutes and before they were read on a Spectramax M5 using a 405 nm excitation wavelength and a 505 nm emission wavelength for detection.

For the compound `CC(Nc1ncc(C(=O)c2cccc(C#N)c2)cn1)c1ccc(C(N)=O)cc1` (single isomer, unassigned; (+)) [Example 10, (+)-4-(1-{[5-(3-cyanobenzoyl)pyrimidin-2-yl]amino}ethyl)benzamide], the IC50 in assay [1] is above 20000 nM; in assay [2] it was above 10000 nM.

For `CC(Nc1ncc(C(=O)c2cccc(C#N)c2)cn1)c1ccc(C(N)=O)cc1` (single isomer, unassigned; (-)) [Example 9, (−)-4-(1-{[5-(3-cyanobenzoyl)pyrimidin-2-yl]amino}ethyl)benzamide], the figures for the IC50 in assay [1] and in assay [2] were 10.3 nM and 41.3 nM, respectively.

As for `N#Cc1cccc(C(=O)c2cnc(NCc3cnc(N)nc3)nc2)c1` [Example 4, 3-[(2-{[(2-aminopyrimidin-5-yl)methyl]amino}pyrimidin-5-yl)carbonyl]benzonitrile], the IC50 was determined as 22.4 nM in assay [1] and 21 nM in assay [2].

With `N#Cc1cccc(C(=O)c2cnc(NC3(c4cnccn4)CC3)nc2)c1` [Example 5, 3-[(2-{[1-(pyrazin-2-yl)cyclopropyl]amino}pyrimidin-5-yl)carbonyl]benzonitrile], the IC50 in assay [1] turned out to be 3.4 nM; in assay [2], 9.8 nM.

`N#Cc1cccc(C(=O)c2cnc(NCc3ccc(N)nc3)nc2)c1` [Example 6, 3-[(2-{[(6-aminopyridin-3-yl)methyl]amino}pyrimidin-5-yl)carbonyl]benzonitrile]: the half-maximal inhibitory concentration (IC50) turned out to be 37.3 nM in assay [1] and 24.8 nM in assay [2].

In the case of `CC(Nc1ncc(C(=O)c2cccc(C#N)c2)cn1)c1cccnc1` (centres unmarked) [Example 7, 3-[(2-{[1-(pyridin-3-yl)ethyl]amino}pyrimidin-5-yl)carbonyl]benzonitrile], in assay [2], the IC50 was 3.9 nM. This counts as single-digit nanomolar.

`CC(Nc1ncc(C(=O)c2cccc(C#N)c2)cn1)c1ccc(C(N)=O)cc1` (centres unmarked) [Example 8, 4-(1-{[5-(3-cyanobenzoyl)pyrimidin-2-yl]amino}ethyl)benzamide] gave an IC50 in assay [2] of 91.4 nM.

In the case of `O=C(c1cnc(NC2(c3cncnc3)CC2)nc1)c1cccc(C(F)(F)F)c1` [Example 16, (2-{[1-(pyrimidin-5-yl)cyclopropyl]amino}pyrimidin-5-yl)[3-(trifluoromethyl)phenyl]methanone], the IC50 stood at 1.7 nM in assay [1] and 2.6 nM in assay [2].

For the compound `CS(=O)(=O)c1cccc(C(=O)c2cnc(NC3(c4cncnc4)CC3)nc2)c1` [Example 17, [3-(methylsulfonyl)phenyl](2-{[1-(pyrimidin-5-yl)cyclopropyl]amino}pyrimidin-5-yl)methanone], the results for the IC50 in assay [1] and in assay [2] were 0.8 nM and 1.8 nM, respectively.

Turning to `COc1cccc(C(=O)c2cnc(NC3(c4cncnc4)CC3)nc2)c1` [Example 18, (3-methoxyphenyl)(2-{[1-(pyrimidin-5-yl)cyclopropyl]amino}pyrimidin-5-yl)methanone], the figures for the 50% inhibitory concentration (IC50) in assay [1] and in assay [2] were 26.5 nM and 12.3 nM, respectively.

`CS(=O)(=O)c1cccc(C(=O)c2ccc(NCc3cncnc3)nc2)c1` [Example 19, [3-(methylsulfonyl)phenyl]{6-[(pyrimidin-5-ylmethyl)amino]pyridin-3-yl}methanone]: the half-maximal inhibitory concentration (IC50) in assay [1] was found to be 1440 nM; in assay [2], 28.8 nM.

With `CS(=O)(=O)c1cccc(C(=O)c2cnc(NCc3cncnc3)nc2)c1` [Example 20, [3-(methylsulfonyl)phenyl]{2-[(pyrimidin-5-ylmethyl)amino]pyrimidin-5-yl}methanone], the half-inhibitory concentration (IC50) in assay [1] came to 9.4 nM; in assay [2], 17 nM.

Take `CS(=O)(=O)c1cccc(C(=O)c2cnc(NCc3cccnn3)nc2)c1` [Example 21, [3-(methylsulfonyl)phenyl]{2-[(pyridazin-3-ylmethyl)amino]pyrimidin-5-yl}methanone]: in assay [2], the midpoint of inhibition, the IC50, lay at 63 nM. That is a double-digit nanomolar value.

Regarding `N#Cc1cccc(C(=O)c2cnc(NCc3cc[nH]c(=O)c3)nc2)c1` [Example 72, 3-[(2-{[(2-oxo-1,2-dihydropyridin-4-yl)methyl]amino}pyrimidin-5-yl)carbonyl] benzonitrile], the results for the IC50 in assay [1] and in assay [2] were 188 nM and 86.2 nM, respectively.

As to `N#Cc1cccc(C(=O)c2cnc(NC3(c4ccccc4)CCC3)nc2)c1` [Example 129, 3-({2-[(1-phenylcyclobutyl)amino]pyrimidin-5-yl}carbonyl) benzonitrile], the IC50 in assay [1] was 9.9 nM; in assay [2] it was 12.4 nM.

With `N#Cc1cc(F)cc(C(=O)c2cnc(NCc3cncnc3)nc2)c1` [Example 130, 3-fluoro-5-({2-[(pyrimidin-5-ylmethyl)amino]pyrimidin-5-yl}carbonyl) benzonitrile], the IC50 in assay [1] stood at 482 nM; in assay [2], 289 nM.

In the case of `N#Cc1ccc(F)c(C(=O)c2cnc(NCc3cncnc3)nc2)c1` [Example 131, 4-fluoro-3-({2-[(pyrimidin-5-ylmethyl)amino]pyrimidin-5-yl}carbonyl) benzonitrile], the IC50 was determined as 541 nM in assay [1] and 370 nM in assay [2].

For the compound `Cc1ccc(C(=O)c2cnc(NCc3cncnc3)nc2)cc1C#N` [Example 132, 2-methyl-5-({2-[(pyrimidin-5-ylmethyl)amino]pyrimidin-5-yl}carbonyl) benzonitrile], the values for the IC50 in assay [1] and in assay [2] were 126 nM and 98.2 nM, respectively.

`CC(Nc1ncc(C(=O)c2cccc(C#N)c2)cn1)c1cncnc1` (centres unmarked) [Example 133, 3-[(2-{[1-(pyrimidin-5-yl)ethyl]amino}pyrimidin-5-yl)carbonyl] benzonitrile] registered an IC50 in assay [2] of 15.5 nM.

For the compound `N#Cc1cc(C(=O)c2cnc(NCc3cncnc3)nc2)ccc1Cl` [Example 134, 2-chloro-5-({2-[(pyrimidin-5-ylmethyl)amino]pyrimidin-5-yl}carbonyl) benzonitrile], the IC50 in assay [1] is 259 nM; in assay [2], 100 nM.

As to `N#Cc1cc(C(=O)c2cnc(NCc3cncnc3)nc2)ccc1F` [Example 135, 2-fluoro-5-({2-[(pyrimidin-5-ylmethyl)amino]pyrimidin-5-yl}carbonyl) benzonitrile], the IC50 in assay [1] worked out at 48.4 nM; in assay [2], 68.3 nM.

Regarding `NC(=O)c1cccc(C(=O)c2cnc(NCc3cncnc3)nc2)c1` [Example 136, 3-({2-[(pyrimidin-5-ylmethyl)amino]pyrimidin-5-yl}carbonyl) benzamide], the half-maximal inhibitory concentration (IC50) is 187 nM in assay [1] and 137 nM in assay [2].

Regarding `Cn1ncc2ccc(C(=O)c3cnc(NCc4cncnc4)nc3)cc21` [Example 137, (1-methyl-1H-indazol-6-yl){2-[(pyrimidin-5-ylmethyl)amino]pyrimidin-5-yl}methanone], the values for the IC50 in assay [1] and in assay [2] were 501 nM and 1010 nM, respectively.

For `COc1ccc(C(=O)c2cnc(NC(C)c3cncnc3)nc2)cc1` (centres unmarked) [Example 138, (4-methoxyphenyl) (2-{[1-(pyrimidin-5-yl)ethyl]amino}pyrimidin-5-yl)methanone], the 50% inhibitory concentration (IC50) is 194 nM in assay [1] and 437 nM in assay [2].

In assay [2], `O=C(c1ccc(NCc2cncnc2)nc1)c1cccc(C(F)(F)F)c1` [Example 139, {6-[(pyrimidin-5-ylmethyl)amino]pyridin-3-yl}[3-(trifluoromethyl)phenyl]methanone] came in with an IC50 of 31.5 nM.

For `N#Cc1cccc(C(=O)c2ccc(NCc3cncnc3)nc2)c1` [Example 140, 3-({6-[(pyrimidin-5-ylmethyl)amino]pyridin-3-yl}carbonyl) benzonitrile], the IC50 was 144 nM in assay [1] and 64.4 nM in assay [2].

Compound `O=C(c1cnc(NCc2cncnc2)nc1)c1ccnc(C(F)(F)F)c1` [Example 141, {2-[(pyrimidin-5-ylmethyl)amino]pyrimidin-5-yl}[2-(trifluoromethyl)pyridin-4-yl]methanone] gave an IC50 in assay [2] of 280 nM.

For the compound `COc1cccc(C(=O)c2cnc(NC(C)c3cncnc3)nc2)c1` (centres unmarked) [Example 142, (3-methoxyphenyl) (2-{[1-(pyrimidin-5-yl)ethyl]amino}pyrimidin-5-yl)methanone], the half-inhibitory concentration (IC50) in assay [1] is 17.1 nM; in assay [2], 34.3 nM.

As to `COc1cccc(C(=O)c2cnc(NCc3cncnc3)nc2)c1` [Example 143, (3-methoxyphenyl) {2-[(pyrimidin-5-ylmethyl)amino]pyrimidin-5-yl}methanone], the values for the concentration for half-maximal inhibition (IC50) in assay [1] and in assay [2] were 81.5 nM and 110 nM, respectively.

In the case of `CC(Nc1ccc(C(=O)c2cccc(C#N)c2)cn1)c1cncnc1` (centres unmarked) [Example 144, 3-[(6-{[1-(pyrimidin-5-yl)ethyl]amino}pyridin-3-yl)carbonyl] benzonitrile], the half-inhibitory concentration (IC50) in assay [1] came out at 12.5 nM; in assay [2], 19.8 nM.

`O=C(c1cnc(NCc2cncnc2)nc1)c1ccc2c(c1)OCCO2` [Example 145, 2,3-dihydro-1,4-benzodioxin-6-yl{2-[(pyrimidin-5-ylmethyl)amino]pyrimidin-5-yl}methanone]: the values for the half-maximal inhibitory concentration (IC50) in assay [1] and in assay [2] were 329 nM and 486 nM, respectively.
